Experimental data: patent publication US20130065922A1, “NOVEL AMIDES AS FUNGICIDES” (priority 2010, published 2013)
Read-outs that look alike come from different tables or passages of the source.

Key:
Pythium ultimum = test: Pythium ultimum/Liquid Culture (Seedling Damping Off); type: cell-based; conditions: Globisporangium ultimum, read-out: inhibit fungal infestation
Plasmopara viticola = test: whole plant or invertebrate; type: in vivo; conditions: foliar, read-out: inhibit fungal infestation
[1] = system: Blumeria graminis f. Sp. tritici (Erysiphe graminis f. Sp. tritici); test: Blumeria graminis f. Sp. tritici (Erysiphe graminis f. Sp. tritici)/Wheat/Leaf Disc Preventative (Powdery Mildew on Wheat); type: in vivo; conditions: foliar, read-out: inhibit fungal infestation
Phytophthora infestans = test: whole plant or invertebrate; type: in vivo; conditions: in Solanum lycopersicum, foliar, read-out: inhibit fungal infestation
[2] = system: Phaeosphaeria nodorum (Septoria nodorum); test: Phaeosphaeria nodorum (Septoria nodorum)/Wheat/Leaf Disc Preventative (Glume Blotch); type: in vivo; conditions: Parastagonospora nodorum, foliar, read-out: inhibit fungal infestation
[3] = 200 ppm, liquid culture (PDB), 24° C., growth inhibition photometrically 2-3 days after application
[4] = 200 ppm, wheat leaf segments cv. Kanzler, preventative, 6-8 days after application, untreated control infected to over 80%
[5] = 200 ppm, wheat leaf segments cv. Kanzler, preventative, 5-7 days after application, untreated control infected to over 80%

| Compound | inhibition at 200 ppm (Pythium ultimum; [3]) [%] | inhibition at 200 ppm (Plasmopara viticola) [%] | inhibition at 200 ppm [1, 4] [%] | inhibition at 200 ppm (Phytophthora infestans) [%] | melting point [°C] | inhibition at 200 ppm [2, 5] [%] | inhibition at 200 ppm (Pythium ultimum) [%] | inhibition at 200 ppm [1] [%] | inhibition at 200 ppm [2] [%] |
| --- | --- | --- | --- | --- | --- | --- | --- | --- | --- |
| CO/N=C/C(C)(C)NC(=O)C(Oc1cc(Cl)c2ncc(OC)cc2c1)SC (stereo not drawn) [Compound 15, 2-(8-Chloro-3-methoxy-quinolin-6-yloxy)-N-(2-methoxyimino-1,1-dimethyl-ethyl)-2-methylsulfanyl-acetamide] | ≥ 80 | ≥ 80 | ≥ 80 | ≥ 80 | 124 to 125 | ≥ 80 | – | – | – |
| COCC#CC(C)(C)NC(=O)C(Oc1cc(C)c2ncc(OC)cc2c1)SC (stereo not drawn) [Compound 17, N-(4-Methoxy-1,1-dimethyl-but-2-ynyl)-2-(3-methoxy-8-methyl-quinolin-6-yloxy)-2-methylsulfanyl-acetamide] | – | ≥ 80 | – | ≥ 80 | 94 to 98 | – | ≥ 80 | ≥ 80 | ≥ 80 |
| CO/N=C/C(C)(C)NC(=O)C(Oc1cc(C)c2ncc(OC)cc2c1)SC (stereo not drawn) [Compound 19, N-(2-Methoxyimino-1,1-dimethyl-ethyl)-2-(3-methoxy-8-methyl-quinolin-6-yloxy)-2-methylsulfanyl-acetamide] | ≥ 80 | ≥ 80 | ≥ 80 | ≥ 80 | 121 to 124 | ≥ 80 | – | – | – |
| CCOc1cnc2c(C)cc(OC(SC)C(=O)NC(C)(C)/C=N/OC)cc2c1 (stereo not drawn) [Compound 21, 2-(3-Ethoxy-8-methyl-quinolin-6-yloxy)-N-(2-methoxyimino-1,1-dimethyl-ethyl)-2-methylsulfanyl-acetamide] | ≥ 80 | ≥ 80 | ≥ 80 | ≥ 80 | 125 to 126 | ≥ 80 | – | – | – |
| CCOc1cnc2c(C)cc(OC(SC)C(=O)NC(C)(C)C#CCOC)cc2c1 (stereo not drawn) [Compound 22] | – | ≥ 80 | – | ≥ 80 | 107 to 109 | – | ≥ 80 | ≥ 80 | ≥ 80 |
| CO/N=C/C(C)(C)NC(=O)C(Oc1ccc2ncc(SC)cc2c1)SC (stereo not drawn) [Compound 27, N-(2-Methoxy-imino-1,1-dimethyl-ethyl)-2-methylsulfanyl-2-(3-methylsulfanyl-quinolin-6-yloxy)-acetamide] | ≥ 80 | ≥ 80 | ≥ 80 | ≥ 80 | 120 to 122 | ≥ 80 | – | – | – |
